Assay results published in patent US7566712B2, “Biaryl piperazinyl-pyridine analogues” (Neurogen Corporation, priority 2003, dated 2009).

target: T1, human capsaicin receptor (Homo sapiens, UniProt Q8NER1); experiment: Calcium mobilization assay, determination of antagonist activity (Example 6); assay type: cell-based; details: determined as described in Example 6 (calcium mobilization, antagonist activity); Table II
T1 construct: pBK-CMV expression construct encoding the full length human capsaicin receptor; expressed in transfected cells
T1 sequence (Q8NER1 whole entry): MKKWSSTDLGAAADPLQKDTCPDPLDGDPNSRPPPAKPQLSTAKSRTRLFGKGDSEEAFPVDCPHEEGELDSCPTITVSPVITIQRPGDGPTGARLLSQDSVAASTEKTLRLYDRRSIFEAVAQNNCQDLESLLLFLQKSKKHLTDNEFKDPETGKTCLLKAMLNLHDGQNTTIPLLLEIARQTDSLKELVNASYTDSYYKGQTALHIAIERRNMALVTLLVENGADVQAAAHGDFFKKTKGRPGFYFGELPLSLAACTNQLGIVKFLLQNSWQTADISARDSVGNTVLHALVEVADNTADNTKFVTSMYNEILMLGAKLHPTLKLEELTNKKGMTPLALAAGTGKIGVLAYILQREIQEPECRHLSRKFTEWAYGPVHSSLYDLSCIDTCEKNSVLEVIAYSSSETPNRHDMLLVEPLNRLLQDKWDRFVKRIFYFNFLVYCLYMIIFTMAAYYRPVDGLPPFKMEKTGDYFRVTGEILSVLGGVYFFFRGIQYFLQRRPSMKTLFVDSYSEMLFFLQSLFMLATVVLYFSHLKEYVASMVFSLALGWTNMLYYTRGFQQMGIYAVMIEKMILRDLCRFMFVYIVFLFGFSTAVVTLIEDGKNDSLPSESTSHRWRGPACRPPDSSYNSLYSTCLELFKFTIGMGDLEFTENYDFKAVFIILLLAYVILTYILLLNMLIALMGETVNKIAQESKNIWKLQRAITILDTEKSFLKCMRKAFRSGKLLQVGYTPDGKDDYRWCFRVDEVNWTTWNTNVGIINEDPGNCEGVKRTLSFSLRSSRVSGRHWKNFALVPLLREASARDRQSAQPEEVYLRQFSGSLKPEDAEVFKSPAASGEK
Summary of the method: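 HEK293 clonal lines stably expressing full-length human capsaicin receptor, loaded with Fluo-3 AM in KRH buffer pH 7.4, 1–2 h at 37 °C. Compounds (1–5 μM final) preincubated 0.5–6 h at room temperature, then capsaicin at its EC50 added. FLIPR/Fluoroskan calcium signal; IC50 as 50% decrease of capsaicin response.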

IC50, ≤ 1000 nM:
CC(=O)c1nc(-c2ccc(F)c(C)c2)cc(N2CCN(c3ncccc3C(F)(F)F)CC2)n1 [Example 672, 1-(4-(4-fluoro-3-methylphenyl)-6-{4-[3-(trifluoromethyl)pyridin-2-yl]piperazin-1-yl}pyrimidin-2-yl)ethanone]
Fc1ccc(-c2cc(N3CCN(c4ncccc4C(F)(F)F)CC3)nc(N3CCN(c4ncccc4C(F)(F)F)CC3)n2)cc1Cl [Example 673, 4-(3-chloro-4-fluorophenyl)-2,6-bis{4-[3-(trifluoromethyl)pyridin-2-yl]piperazin-1-yl}pyrimidine]
Cc1cc(-c2cc(N3CCN(c4ncccc4C(F)(F)F)CC3)nc(N3CCCC3)n2)ccc1F [Example 674, 4-(4-fluoro-3-methylphenyl)-2-pyrrolidin-1-yl-6-{4-[3-(trifluoromethyl)pyridin-2-yl]piperazin-1-yl}pyrimidine]
Cc1cc(-c2cc(N3CCN(c4ncccc4C(F)(F)F)CC3)nc(N3CCCCC3)n2)ccc1F [Example 675, 4-(4-fluoro-3-methylphenyl)-2-piperidin-1-yl-6-{4-[3-(trifluoromethyl)pyridin-2-yl]piperazin-1-yl}pyrimidine]
Cc1cc(-c2cc(N3CCN(c4ncccc4C(F)(F)F)CC3)nc(N3CCCC3C)n2)ccc1F (centres unmarked) [Example 676, 4-(4-fluoro-3-methylphenyl)-2-(2-methylpyrrolidin-1-yl)-6-{4-[3-(trifluoromethyl)pyridin-2-yl]piperazin-1-yl}pyrimidine]
Cc1cc(-c2cc(N3CCN(c4ncccc4C(F)(F)F)CC3)nc(N3C(C)CCC3C)n2)ccc1F (centres unmarked) [Example 677, 2-(2,5-dimethylpyrrolidin-1-yl)-4-(4-fluoro-3-methylphenyl)-6-{4-[3-(trifluoromethyl)pyridin-2-yl]piperazin-1-yl}pyrimidine]
Cc1cc(-c2cc(N3CCN(c4ncccc4C(F)(F)F)CC3)nc(N(CCO)CCO)n2)ccc1F [Example 678]
CC(=O)N(C)c1nc(-c2ccc(F)c(Cl)c2)cc(N2CCN(c3ncccc3C(F)(F)F)CC2)n1 [Example 679, N-(4-(3-chloro-4-fluorophenyl)-6-{4-[3-(trifluoromethyl)pyridin-2-yl]piperazin-1-yl}pyrimidin-2-yl)-N-methylacetamide]
O=C1CCC(=O)N1c1nc(-c2ccc(F)c(Cl)c2)cc(N2CCN(c3ncccc3C(F)(F)F)CC2)n1 [Example 680, 1-(4-(3-chloro-4-fluorophenyl)-6-{4-[3-(trifluoromethyl)pyridin-2-yl]piperazin-1-yl}pyrimidin-2-yl)pyrrolidine-2,5-dione]
Cc1cc(-c2cc(N3CCN(c4ncccc4C(F)(F)F)CC3)nc(C(C)N(C)C)n2)ccc1F (centres unmarked) [Example 681, 1-(4-(4-fluoro-3-methylphenyl)-6-{4-[3-(trifluoromethyl)pyridin-2-yl]piperazin-1-yl}pyrimidin-2-yl)-N,N-dimethylethanamine]
CCCN1CCN(c2nc(-c3ccc(F)c(C)c3)cc(N3CCN(c4ncccc4C(F)(F)F)CC3)n2)CC1 [Example 682, 4-(4-fluoro-3-methylphenyl)-2-(4-propylpiperazin-1-yl)-6-{4-[3-(trifluoromethyl)pyridin-2-yl]piperazin-1-yl}pyrimidine]
CC(C)n1ccnc1-c1nc(-c2ccc(F)c(Cl)c2)cc(N2CCN(c3ncccc3C(F)(F)F)CC2)n1 [Example 683, 4-(3-chloro-4-fluorophenyl)-2-(1-isopropyl-1H-imidazol-2-yl)-6-{4-[3-(trifluoromethyl)pyridin-2-yl]piperazin-1-yl}pyrim:dine]
Cc1cc(-c2cc(N3CCN(c4ncccc4C(F)(F)F)CC3)nc(-c3nccn3C(C)C)n2)ccc1F [Example 684, 4-(4-fluoro-3-methylphenyl)-2-(1-isopropyl-1H-imidazol-2-yl)-6-{4-[3-(trifluoromethyl)pyridin-2-yl]piperazin-1-yl}pyrimidine]
Cc1cc(-c2cc(N3CCN(c4ncccc4C(F)(F)F)CC3)nc(N3CCCCS3(=O)=O)n2)ccc1F [Example 685, 2-(4-(4-fluoro-3-methylphenyl)-6-{4-[3-(trifluoromethyl)pyridin-2-yl]piperazin-1-yl}pyrimidin-2-yl)-1,2-thiazinane 1,1-dioxide]
Cc1cc(-c2cc(N3CCN(c4ncccc4C(F)(F)F)CC3)nc(C(C)O)n2)ccc1F (centres unmarked) [Example 686, 1-(4-(4-fluoro-3-methylphenyl)-6-{4-[3-(trifluoromethyl)pyridin-2-yl]piperazin-1-yl}pyrimidin-2-yl)ethanol]
Cc1cc(-c2cc(N3CCN(c4ncccc4C(F)(F)F)CC3)nc(N(CCO)C(C)C)n2)ccc1F [Example 687, 2-[(4-(4-fluoro-3-methylphenyl)-6-{4-[3-(trifluoromethyl)pyridin-2-yl]piperazin-1-yl}pyrimidin-2-yl)(isopropyl)amino]ethanol]
Cc1cc(-c2cc(N3CCN(c4ncccc4C(F)(F)F)CC3)nc(N3CCN(S(C)(=O)=O)CC3)n2)ccc1F [Example 688, 4-(4-fluoro-3-methylphenyl)-2-[4-(methylsulfonyl)piperazin-1-yl]-6-{4-[3-(trifluoromethyl)pyridin-2-yl]piperazin-1-yl}pyrimidine]
Cc1cc(-c2cc(N3CCN(c4ncccc4C(F)(F)F)CC3)nc(-c3ccncc3)n2)ccc1F [Example 689, 4-(4-fluoro-3-methylphenyl)-2-pyridin-4-yl-6-{4-[3-(trifluoromethyl)pyridin-2-yl]piperazin-1-yl}pyrimidine]
Cc1cc(-c2cc(N3CCN(c4ncccc4C(F)(F)F)CC3)nc(NS(=O)(=O)C(C)C)n2)ccc1F [Example 690, N-(4-(4-fluoro-3-methylphenyl)-6-{4-[3-(trifluoromethyl)pyridin-2-yl]piperazin-1-yl}pyrimidin-2-yl)propane-2-sulfonamide]
Cc1cc(-c2cc(N3CCN(c4ncccc4C(F)(F)F)CC3)nc(N(C)S(=O)(=O)C(C)C)n2)ccc1F [Example 691, N-(4-(4-fluoro-3-methylphenyl)-6-{4-[3-(trifluoromethyl)pyridin-2-yl]piperazin-1-yl}pyrimidin-2-yl)-N-methytpropane-2-sulfonamide]
Cc1cc(-c2cc(N3CCN(c4ncccc4C(F)(F)F)CC3)nc(N(C(C)C)S(=O)(=O)C(C)C)n2)ccc1F [Example 692, N-(4-(4-fluoro-3-methylphenyl)-6-{4-[3-(trifluoromethyl)pyridin-2-yl]piperazin-1-yl}pyrimidin-2-yl)-N-isopropylpropane-2-sulfonamide]
Fc1ccc(-c2cc(N3CCN(c4ncccc4C(F)(F)F)CC3)nc(NC3CCCC3)n2)cc1Cl [Example 693, 4-(3-chloro-4-fluorophenyl)-N-cyclopentyl-6-{4-[3-(trifluoromethyl)pyridin-2-yl]piperazin-1-yl}pyrimidin-2-amine]
CNC[C@@H]1CCCN1c1nc(-c2ccc(F)c(Cl)c2)cc(N2CCN(c3ncccc3C(F)(F)F)CC2)n1 [Example 694, 1-[(2S)-1-(4-(3-chloro-4-fluorophenyl)-6-{4-[3-(trifluoromethyl)pyridin-2-yl]piperazin-1-yl}pyrimidin-2-yl)pyrrolidin-2-yl]-N-methylmethanamine]
Cc1cccnc1N1CCN(c2cc(-c3ccc(F)c(Cl)c3)nc(N3CCCC3C)n2)CC1 (centres unmarked) [Example 695, 4-(3-chloro-4-fluorophenyl)-6-[4-(3-methylpyridin-2-yl)piperazin-1-yl]-2-(2-methylpyrrolidin-1-yl)pyrimidine]
Cc1cc(-c2cc(N3CCN(c4ncccc4C)CC3)nc(N3CCCC3C)n2)ccc1F (centres unmarked) [Example 696, 4-(4-fluoro-3-methylphenyl)-6-[4-(3-methylpyridin-2-yl)piperazin-1-yl]-2-(2-methylpyrrolidin-1-yl)pyrimidine]
Cc1cc(-c2cc(N3CCN(c4ncccc4Cl)CC3)nc(N3CCCC3)n2)ccc1F [Example 697, 4-[4-(3-chloropyridin-2-yl)piperazin-1-yl]-6-(4-fluoro-3-methylphenyl)-2-pyrrolidin-1-ylpyrimidine]
Cc1cc(-c2cc(N3CCN(c4ncccc4Cl)CC3)nc(N3CCCC3C)n2)ccc1F (centres unmarked) [Example 698, 4-[4-(3-chloropyridin-2-yl)piperazin-1-yl]-6-(4-fluoro-3-methylphenyl)-2-(2-methylpyrrolidin-1-yl)pyrimidine]
CC1(C)CCCN1c1nc(-c2ccc(F)c(Cl)c2)cc(N2CCN(c3ncccc3C(F)(F)F)CC2)n1 [Example 699, 4-(3-chloro-4-fluorophenyl)-2-(2,2-dimethylpyrrolidin-1-yl)-6-{4-[3-(trifluoromethyl)pyridin-2-yl]piperazin-1-yl}pyrimidine]
Fc1ccc(-c2cc(N3CCN(c4ncccc4Cl)CC3)nc(SCc3ccccc3)n2)cc1Cl [Example 700, 2-(benzylthio)-4-(3-chloro-4-fluorophenyl)-6-[4-(3-chloropyridin-2-yl)piperazin-1-yl]pyrimidine]
O=S(=O)(Cc1ccccc1)c1nc(-c2ccc(F)c(Cl)c2)cc(N2CCN(c3ncccc3Cl)CC2)n1 [Example 701, 2-(benzylsulfonyl)-4-(3-chloro-4-fluorophenyl)-6-[4-(3-chloropyridin-2-yl)piperazin-1-yl]pyrimidine]
Cc1cccnc1N1CCN(c2cc(-c3ccc(F)cc3)nc(N3CCCC3C)n2)CC1 (centres unmarked) [Example 702, 4-(4-fluorophenyl)-6-[4-(3-methylpyridin-2-yl)piperazin-1-yl]-2-(2-methylpyrrolidin-1-yl)pyrimidine]
Cc1cccnc1N1CCN(c2cc(-c3ccc(F)c(F)c3)nc(N3CCCC3C)n2)CC1 (centres unmarked) [Example 703, 4-(3,4-difluorophenyl)-6-[4-(3-methylpyridin-2-yl)piperazin-1-yl]-2-(2-methylpyrrolidin-1-yl)pyrimidine]
